The subject of the experiment is Gram-positive bacteria. The experiment in a line: Addition of Crystal Violet to culture medium, growth inhibition of Gram-positive bacteria. It is filed as cell-based. To be noted: concentration as low as.

Regarding `CN(C)c1ccc(C(=C2C=CC(=[N+](C)C)C=C2)c2ccc(N(C)C)cc2)cc1` [Crystal Violet], the “Crystal Violet concentration at which inhibition of the growth of a large quantity of Gram-positive bacteria is observed” value stood at 0.1 mg/L.

The values are drawn from patent US20050009132A1, “Culture medium for detecting and/or discriminating enterococcus and method therefor” (priority 2001, published 2005).
